Measurements as given in patent US6384042B2, “Systemic use of 5-HT3 receptor antagonists against rheumatic inflammatory processes” (priority 1999, dated 2002).

What was measured:
Assay type in all cases: in vivo
[1] = system: patient exhibiting rheumatoid arthritis and severe consequential synovial inflammation; test: Treatment of synovial inflammation/synovitis consequent to inflammatory processes, trial on a patient (Example 1); conditions: for outcome of previous treatment: same rheumatoid arthritis patient, treatment before trial entry
Procedure: The subject is treated for 5 days sequentially with tropisetron administered at a dose of 2 mg/day i.v. Treatment results in amelioration of the synovial inflammation, a reduction of stiffness in the morning and remission from the formation of effusion in the kneejoint.

[2] = system: patient with meniscus damage and arthritic change leading to synovial inflammation with knee joint effusion; test: Treatment of synovial inflammation with knee joint effusion, patient (Example 2)
Procedure: Two 2 mg doses of tropisetron are administered i.v. over a period of 17 days with 15 injections, one each day with a 2 days pause in therapy. […] The improvement in condition continues over a further 7 days observation following completion of therapy.

[3] = system: patient exhibiting marked dermatomyositis with bioptically verified vasculitis; test: Treatment of dermatomyositis/vasculitis, patient (Example 3)
[4] = rheumatoid arthritis patient, 2 mg/day i.v. for 5 days
[5] = 3 injections i.v., each 2 mg, observed already after the first injection

SMILES | outcome of previous treatment [1] | formation of effusion in the knee joint [1, 4] | glucocorticoid requirements [1, 4] | measure parameters for inflammation [1, 4] | stiffness in the morning [1, 4] | synovial inflammation [1, 4] | movement of the knee joint ([2]; 2 mg i.v., 15 injections over 17 days) | pain ([2]; 24 hours after the first i.v. injection of 2 mg) | symptoms ([2]; following continuation of injections (2 mg i.v., 15 injections over 17 days)) | duration of continued improvement in condition after completion of therapy ([2]; observation following completion of therapy) [days] | exudation from the knee joint ([2]; within 8 days, without any other medication) | massive reddening of the skin [3, 5] | pain symptoms [3, 5] | complaints in follow-up ([3]; over a period of one week following)
Cn1cnc([N+](=O)[O-])c1Sc1ncnc2[nH]cnc12 [azathioprin] | largely unsuccessfully | – | – | – | – | – | – | – | – | – | – | – | – | –
CN(Cc1cnc2nc(N)nc(N)c2n1)c1ccc(C(=O)N[C@@H](CCC(=O)O)C(=O)O)cc1 [methotrexate] | largely unsuccessfully | – | – | – | – | – | – | – | – | – | – | – | – | –
CN1[C@@H]2CC[C@H]1C[C@@H](OC(=O)c1c[nH]c3ccccc13)C2 [tropisetron, Indol-3-yl-carboxylic acid-endo-8-methyl-8-aza-bicyclo[3,2,1]-oct-3-yl-ester] | – | remission | marked reduction | reduction | reduction | amelioration | clearly improved | significant improvement | virtually free of symptoms | 7 | completely inhibited | Virtually complete remission | clear reduction | substantially complaint free
